According to patent US11541029B2, “High penetration compositions and their applications” (Techfields Pharma Co., Ltd., priority 2008, dated 2023):

Key:
[1] = Amount of salicylic acid in rat cerebrospinal fluid (CSF), 0.3 mmol/kg; assay type: in vivo, rats
Description: 27 male rats were divided into 4 groups […]. […] Amounts of salicylic acid in rat CSF were determined.

[2] = test system: GK rats (SLAC/GK, type 2 diabetes); assay: Anti-diabetes (type II) activity of HPCs of NSAIAs in GK rats; assay type: in vivo; conditions: 30 mg/kg transdermally once per day, no fasting
How it was run: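 GK (type 2 diabetic) and normal SD rats, 14-16 weeks old, n=7, received 30 mg/kg test compound in 25% ethanol transdermally on a 6 cm^2 shaved back area once daily at 8 am for 6 weeks. Non-fasting blood glucose was measured at 4:30 pm every 3 days from week 3 to week 6.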

[3] = test system: autologous blood clots injected in femoral vein (pulmonary thrombus); assay: Anti-thrombosis activity, autologous blood clots in rabbits; assay type: in vivo, Chinese White rabbits; conditions: 50 mg/kg topically to the back twice per day, 5 days
Description: Eighteen Chinese White rabbits weighing between 3.0 and 3.5 kg (aged 6-7 months) were selected and divided into three groups (control, P-1 and […] groups, n=6). One hour before the experiment, thrombi were made by aspirating venous blood (1 ml) into a sterilized bottle to clot. To avoid fragmentation and slow lysis, the autologous blood clots were stabilized in temperature-controlled (70° C.) distilled water for 10 min. After anesthesia, the femoral veins were exposed and distally isolated, and autologous blood clots (0.05 g/kg) were injected through an indwelling catheter (20GA), which had been placed in the femoral vein isolated earlier. 50 mg/kg of diethylaminoethyl acetylsalicylate.HCl salt (P-1, 10% in 25% ethanol) and diethylaminoethyl acetylsalicylsalicylate.HCl salt (P-59, 10% in 25% ethanol) were topically applied to the back of the rabbits twice per day. After 5 days, rabbits were euthanized with an excessive intravenous injection of sodium amobarbital (60 mg/kg). The lungs and hearts were isolated to observe whether thrombi were present in the pulmonary arteries. The lungs were immersed in 10% formalin for 24 h. Consecutive transverse sections along the obstructed pulmonary arteries were paraffin-embedded and stained with hematoxylin-eosine. […]

[4] = test system: Human breast cancer cells (BCAP-37); assay: Human breast cancer xenograft in nude mice
How it was run: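 BCAP-37 tumour tissue (2-3 mm^3 per mouse) implanted subcutaneously in BALB nude mice, 12 groups of 7. Test salts given as 50 μl of 5% aqueous solution (2.5 mg compound per dose).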

[5] = test system: type 2 diabetes rat models [SLAC/GK(Goto and Kakisaki)]; assay: Hypoglycemic effects of aspirin and its HPC in GK rats, once per day for 6 weeks; assay type: in vivo; conditions: for Blood Glucose Levels at day 1 / Blood Glucose Levels at day 42: no fasting, n = 5;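 as to Blood Glucose Levels at day 42: blood glucose in mg/dL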
Description: The blood glucose levels were measured three times every week (no fasting) from the third week to the sixth week.

CCN(CC)CCOC(=O)c1ccccc1OC(C)=O.Cl [P-1, diethylaminoethyl acetylsalicylate.HCl salt]
salicylic acid in CSF ([1]; intramuscularly, 1 hour): 36.4 ± 4.3 nmol/g | salicylic acid in CSF ([1]; intramuscularly, 8 hours): 28.2 ± 6.5 nmol/g | salicylic acid in CSF ([1]; intramuscularly, 18 hours): 15.1 ± 4.7 nmol/g | salicylic acid in CSF ([1]; transdermally, 1 hour): 38 ± 17 nmol/g | salicylic acid in CSF ([1]; transdermally, 8 hours): 28.4 ± 7.5 nmol/g | salicylic acid in CSF ([1]; transdermally, 18 hours): 22.3 ± 5.4 nmol/g | blood glucose, Average (Week 2-5) [2]: 6.4 ± 2.4 mmol/L | blood glucose, Day 1 [2]: 17.1 ± 2.8 mmol/L | lung tissue and vascular walls (histology) [3]: both lung tissue and vascular walls were normal | tumor Size at day 42 ([4]; 50 μl of 5% topically every 8 hours): 140 ± 50 mm^3 | Weight of mice at day 42 ([4]; in vivo): 24 ± 3 | Blood Glucose Levels at day 1 ([5]; 50 mg/kg, orally): 215.6 ± 19.5 mg/dL | Blood Glucose Levels at day 42 ([5]; 50 mg/kg, orally): 172.4 ± 21.5 mg/dL | Blood Glucose Levels at day 1 ([5]; 50 mg/kg, transdermally): 217.3 ± 19.7 mg/dL | Blood Glucose Levels at day 42 ([5]; 50 mg/kg, transdermally): 135.4 ± 19.8 mg/dL | Blood Glucose Levels at day 1 ([5]; 100 mg/kg, orally): 216.4 ± 18.5 mg/dL | Blood Glucose Levels at day 42 ([5]; 100 mg/kg, orally): 133.4 ± 23.1 mg/dL | Blood Glucose Levels at day 1 ([5]; 100 mg/kg, transdermally): 219.8 ± 20.4 mg/dL | Blood Glucose Levels at day 42 ([5]; 100 mg/kg, transdermally): 115.4 ± 16.7 mg/dL | Blood Glucose Levels at day 1 ([5]; 200 mg/kg, orally): 214.4 ± 26.5 mg/dL | Blood Glucose Levels at day 42 ([5]; 200 mg/kg, orally): 125.4 ± 26.8 mg/dL | Blood Glucose Levels at day 1 ([5]; 200 mg/kg, transdermally): 219.4 ± 23.5 mg/dL | Blood Glucose Levels at day 42 ([5]; 200 mg/kg, transdermally): 111.4 ± 23.2 mg/dL | Blood Glucose Levels at day 1 ([5]; 300 mg/kg, orally): 217.4 ± 25.5 mg/dL | Blood Glucose Levels at day 42 ([5]; 300 mg/kg, orally): 115.4 ± 18.2 mg/dL | anti-diabetic effect, times stronger than that of aspirin ([5]; oral administration): more than 5 times
